# Key:
# [1] = system: STZ-NA-hyperglycemic rats; assay: Pyruvate tolerance tests (inhibition of hepatic glucose production); format: in vivo, Wistar rats; conditions: rats fasted 18 h, pyruvate 2 g/kg i.p.; metformin 500 mg/kg b.w. oral
# Protocol: Treatment administration (vehicle and samples) was performed orally with the help of an esophageal cannula. Blood samples were obtained from the tail vein and glucose measurements were performed in duplicate using Accu-Chek® Active glucometers.
# In summary hyperglycemia was induced as described by [Masiello et al. (1998)], rats fasted for 12 h were administered intraperitoneally with 150 mg/kg b. w. of NA and, 15 min later, 65 mg/kg b. w. of STZ was injected intravenously. After 2 weeks, animals with blood glucose values above 180 mg/dL were selected to perform the tests described below.
# After basal glucose measurement, animals received their corresponding treatment. Fifteen minutes later, rats were injected intraperitoneally with a pyruvate solution (2 g/kg b. w.). In total, 30 rats were divided into five groups (n = 6 each group): 1. Normoglycemic Control + pyruvate (NP), receiving physiological solution; 2. Hyperglycemic Control + pyruvate (HP), which was administered with physiological solution; 3. […] (HMP); 4. Hyperglycemic Group + pyruvate + EtOH-WCg, administered with 30 mg/kg b. w. (HCgP); and 5. […] (HJaP). After intraperitoneal injection, glucose levels were measured every 30 min for 2 h ([Mata-Torres et al., 2020]).
# [2] = target: Protein tyrosine phosphatase 1B (PTP-1B); assay: Protein tyrosine phosphatase 1B (PTP-1B) enzyme activity inhibition assay; format: biochemical; conditions: rat liver supernatant, 10 mM pNPP
# Protocol: One day before the isolation of the enzyme-containing subcellular fraction, lysis buffer was prepared (50 mM HEPES, 0.1 mM EGTA, 0.1 mM EDTA, 120 mM NaCl, 0.5% NP-40, pH 7.5) and enriched with one protease inhibitor cocktail tablet per 10 mL of buffer. The liver from an overnight-fasted healthy rat, previously anesthetized with isoflurane, was removed. The organ was then homogenized in lysis buffer as described by [Li et al. (2010)]. The homogenate was filtered and subsequently centrifuged at 14,000 g for 15 min at 4°C. Supernatants were collected and stored at −40°C until use.
# Colorimetric assays were carried out to detect the dephosphorylation of pNPP, which is proportional to the activity of the PTP-1B enzyme. Three independent assays were performed in triplicate following the protocols proposed by [Guo et al. (2015)] and [Song et al. (2017)] with slight modifications. […] Finally, the absorbance was measured at 405 nm.
# Finally, for in vitro experiments, absorbance values were transformed into activity percentages following the next formula: Enzyme activity %=AS−ASB/AC−ACB×100
# Where A S is the absorbance of the inhibitor sample at a specific concentration, A SB is the blank of the inhibitor sample, A C is the highest absorbance (without inhibitor), and A CB is the blank of the highest absorbance. […]
# Protein tyrosine phosphatase 1B (PTP-1B), sequence (P20417 whole entry): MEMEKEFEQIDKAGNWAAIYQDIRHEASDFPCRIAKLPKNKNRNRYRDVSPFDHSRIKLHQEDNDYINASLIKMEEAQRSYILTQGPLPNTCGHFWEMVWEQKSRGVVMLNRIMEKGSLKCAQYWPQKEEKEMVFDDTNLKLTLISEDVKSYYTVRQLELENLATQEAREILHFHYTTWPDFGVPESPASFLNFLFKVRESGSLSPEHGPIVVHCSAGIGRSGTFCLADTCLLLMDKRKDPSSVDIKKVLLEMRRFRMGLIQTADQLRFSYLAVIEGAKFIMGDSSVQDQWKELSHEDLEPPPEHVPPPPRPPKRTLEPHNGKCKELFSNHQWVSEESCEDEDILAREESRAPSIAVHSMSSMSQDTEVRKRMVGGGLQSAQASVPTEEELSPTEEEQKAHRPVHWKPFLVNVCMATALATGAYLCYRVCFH
IC50 ± SEM [2] [µg/mL],Inhibition % [2] [%],Compound,effect on the hyperglycemic peak 30 min after pyruvate injection [1]
–,–,CN(C)C(=N)N=C(N)N [metformin],completely inhibited the hyperglycemic peak
43.2 ± 1.5,97,[Na+].[Na+].[Na+].[O]=[V]([O-])([O-])[O-] [Na3VO4],–
